Active and inactive are the calls of the source. The calls are words filed in the database; no cut-off is given here.
Assays:
[1] = biological target: T1, Aldo-keto reductase family 1 member B10 (Homo sapiens, UniProt O60218); assay: Inhibition of recombinant human N-terminal His6-tagged AKR1B10 expressed in Escherichia coli BL21 cells using all-trans-retinal as substrate at 20 uM incubated for 15 mins by HPLC method
Target sequence in this assay (O60218 whole entry, looked up): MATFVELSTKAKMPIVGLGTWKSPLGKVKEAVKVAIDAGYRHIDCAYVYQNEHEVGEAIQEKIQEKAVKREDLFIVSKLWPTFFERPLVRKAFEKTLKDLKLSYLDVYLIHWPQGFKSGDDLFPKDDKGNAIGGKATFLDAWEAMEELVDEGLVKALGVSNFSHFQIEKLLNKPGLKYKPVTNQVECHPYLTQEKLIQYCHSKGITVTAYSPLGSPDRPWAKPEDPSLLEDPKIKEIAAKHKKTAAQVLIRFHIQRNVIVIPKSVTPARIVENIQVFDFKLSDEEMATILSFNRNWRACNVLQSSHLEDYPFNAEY

[2] = biological target: T1, Aldo-keto reductase family 1 member B10; assay: Inhibition of recombinant human AKR1B10 expressed in human HCT116 cells assessed as reduction in daunorubicinol production using daunorubicin as substrate at 20 uM incubated for 4 to 8 hrs by UHPLC based transient transfection assay; format: cell-based; conditions: HCT-116
Target sequence in this assay (O60218 whole entry, looked up): as above

[3] = biological target: T1, Aldo-keto reductase family 1 member B10; assay: Inhibition of recombinant human AKR1B10 expressed in human HCT116 cells assessed as reduction in daunorubicinol production using daunorubicin as substrate at 10 uM incubated for 4 to 8 hrs by UHPLC based transient transfection assay; format: cell-based; conditions: HCT-116
Target sequence in this assay (O60218 whole entry, looked up): as above

[4] = Cytotoxicity against human HCT116 cells assessed as cell viability after 72 hrs by MTT assay; format: cell-based; conditions: HCT-116, 72 h
[5] = biological target: T1, Aldo-keto reductase family 1 member B10; assay: Inhibition of recombinant human N-terminal His6-tagged AKR1B10 expressed in Escherichia coli BL21 cells using all-trans-retinal as substrate incubated for 15 mins by HPLC method
Target sequence in this assay (O60218 whole entry): as the sequence (O60218 whole entry, looked up) above

[6] = biological target: T1, Aldo-keto reductase family 1 member B10; assay: Potency index, ratio of IC50 for flufenamic acid to IC50 for text compound for inhibition of recombinant human N-terminal His6-tagged AKR1B10 expressed in Escherichia coli BL21 cells using all-trans-retinal as substrate incubated for 15 mins by HPLC method
Target sequence in this assay (O60218 whole entry, looked up): as above

[7] = biological target: T1, Aldo-keto reductase family 1 member B10; assay: Inhibition of recombinant human N-terminal His6-tagged AKR1B10 expressed in Escherichia coli BL21 cells using daunorubicin as substrate incubated for 20 mins by UHPLC method
Target sequence in this assay (O60218 whole entry): as the sequence (O60218 whole entry, looked up) above

[8] = biological target: Aldo-keto reductase family 1 member B1 (Homo sapiens, UniProt P15121); assay: Inhibition of recombinant N-terminal His6-tagged AKR1B1 (unknown origin) expressed in Escherichia coli BL21 cells using all-trans-retinal as substrate incubated for 15 mins by HPLC method
[9] = biological target: T1, Aldo-keto reductase family 1 member B10; assay: Non-competitive inhibition of recombinant human N-terminal His6-tagged AKR1B10 expressed in Escherichia coli BL21 cells using all-trans-retinal as substrate incubated for 15 mins by Lineweaver-Burk plot analysis
Target sequence in this assay (O60218 whole entry): as the sequence (O60218 whole entry, looked up) above

[10] = biological target: T1, Aldo-keto reductase family 1 member B10; assay: Inhibition of recombinant human AKR1B10 expressed in human HCT116 cells assessed as reduction in daunorubicinol production using daunorubicin as substrate incubated for 4 to 8 hrs by UHPLC based transient transfection assay; format: cell-based; conditions: HCT-116
Target sequence in this assay (O60218 whole entry, looked up): as above

For `COc1cc([C@H]2Oc3cc([C@H]4Oc5cc(O)c(O)cc5C(=O)[C@@H]4O)ccc3O[C@@H]2CO)ccc1O`, which inhibition [1] is on record?
Its inhibition is “Active”.

For `COc1ccc([C@@H]2CC(=O)c3c(O)cc(O)cc3O2)cc1O`, which inhibition [1] is on record?
Its inhibition is “Active”.

For `C[C@@H]1O[C@@H](OC[C@H]2O[C@@H](Oc3c(-c4ccc(O)c(O)c4)oc4cc(O)cc(O)c4c3=O)[C@H](O)[C@@H](O)[C@@H]2O)[C@H](O)[C@H](O)[C@H]1O`, which inhibition [1] is on record?
Its inhibition is “Active”.

With `C[C@@H]1O[C@@H](Oc2c(-c3ccc(O)c(O)c3)oc3cc(O)cc(O)c3c2=O)[C@H](O)[C@H](O)[C@H]1O` as the compound, how does the inhibition [1] read?
Its inhibition is “Active”.

Which inhibition [1] does the source give for `O=C(/C=C/c1ccc(O)c(O)c1)O[C@@H]1C[C@](O)(C(=O)O)C[C@@H](O)[C@H]1O` here?
Its inhibition is “Active”.

With `O=C(CCc1ccc(O)cc1)c1c(O)cc(O)cc1O[C@@H]1O[C@H](CO)[C@@H](O)[C@H](O)[C@H]1O` as the compound, how does the inhibition [1] read?
The inhibition was “Active”.

For `O=C(O)/C=C/c1ccc(O)c(O)c1`, which inhibition [1] is on record?
The inhibition was “Active”.

With `O=C(O)c1ccc(O)cc1` as the compound, how does the inhibition [1] read?
The inhibition was “Active”.

For `O=C(O[C@@H]1Cc2c(O)cc(O)cc2O[C@@H]1c1cc(O)c(O)c(O)c1)c1cc(O)c(O)c(O)c1`, which inhibition [1] is on record?
Its inhibition is “Active”.

Which inhibition [1] does the source give for `O=C1CC(c2ccc(O)cc2)Oc2ccccc21` (stereo unspecified) here?
The inhibition was “Active”.

For `O=C1CC(c2ccccc2O)Oc2ccccc21` (stereo unspecified), which inhibition [1] is on record?
Its inhibition is “Active”.

Which inhibition [1] does the source give for `O=C1C[C@@H](c2ccc(O)cc2)Oc2cc(O)cc(O)c21` here?
Its inhibition is “Active”.

For `O=C1c2c(O)cc(O)cc2O[C@H](c2ccc(O)c(O)c2)[C@H]1O`, which inhibition [1] is on record?
Its inhibition is “Active”.

With `O=c1c(O)c(-c2ccc(O)c(O)c2)oc2cc(O)cc(O)c12` as the compound, how does the inhibition [2] read?
The inhibition was 23%.

And the inhibition [3]?
Its inhibition is 18%.

And the inhibition [1]?
The inhibition was “Active”.

With `O=c1c(O)c(-c2ccc(O)cc2O)oc2cc(O)cc(O)c12` as the compound, how does the inhibition [1] read?
Its inhibition is “Active”.

For `O=c1c(O)c(-c2ccccc2)oc2ccccc12`, which inhibition [1] is on record?
Its inhibition is “Active”.

With `O=c1cc(-c2ccc(O)cc2)oc2c([C@@H]3O[C@H](CO)[C@@H](O)[C@H](O)[C@H]3O)c(O)cc(O)c12` as the compound, how does the inhibition [1] read?
The inhibition was “Active”.

For `O=c1cc(-c2ccccc2)oc2cccc(O)c12`, which inhibition [1] is on record?
Its inhibition is “Active”.

Which inhibition [1] does the source give for `Oc1cc(O)c2c(c1)O[C@H](c1ccc(O)c(O)c1)[C@@H](O)C2` here?
Its inhibition is “Active”.

Which results are given for `O=c1cc(-c2ccccc2)oc2cc(O)ccc12` [7-HYDROXYFLAVONE]?
EC50 [4]: > 50 µM; inhibition [2]: 19%; inhibition [1]: Active; IC50 [5]: 8.3 µM; Ratio IC50 [6]: 10; IC50 [7]: 160 µM; IC50 [8]: 12.3 µM

For `O=c1cc(-c2ccc(O)cc2)oc2cc(O)cc(O)c12` [APIGENIN], which EC50 [4] is on record?
Its EC50 is 23.8 µM.

What about the Ki [9] of the same compound?
The Ki was 6 µM.

What about the inhibition [2] of the same compound?
Its inhibition is 34%.

And the inhibition [3]?
The inhibition was 25%.

And the inhibition [1]?
The inhibition was “Active”.

And the IC50 [5]?
The IC50 was 6.6 µM.

And the Ratio IC50 [6]?
The Ratio IC50 was 10.

What about the IC50 [7] of the same compound?
The IC50 was 37.1 µM.

And the IC50 [8]?
The IC50 was 11.9 µM.

Which results are given for `COc1ccc(-c2coc3cc(O)cc(O)c3c2=O)cc1` [BIOCHANIN]?
inhibition [1]: Active; IC50 [5]: 36.1 µM; IC50 [8]: 127 µM

Which inhibition [1] does the source give for `O=c1c(-c2ccc(O)cc2)coc2cc(O)ccc12` [DAIDZEIN] here?
Its inhibition is “Active”.

And the IC50 [5]?
The IC50 was 32.2 µM.

And the IC50 [8]?
The IC50 was 162 µM.

Which results are given for `O=C(O)c1ccccc1Nc1cccc(C(F)(F)F)c1` [FLUFENAMIC ACID]?
inhibition [10]: inactive; inhibition [1]: Active; IC50 [5]: 96 µM

Which results are given for `O=c1cc(-c2ccc(O)c(O)c2)oc2cc(O)cc(O)c12` [LUTEOLIN]?
EC50 [4]: 26.7 µM; inhibition [2]: 33%; inhibition [1]: Active; IC50 [5]: 9.2 µM; IC50 [7]: 108 µM

Reference: ChEMBL document CHEMBL3739262, “Flavones Inhibit the Activity of AKR1B10, a Promising Therapeutic Target for Cancer Treatment” (J Nat Prod, 2015)
